System: human immunoglobulin binding protein (BiP)
Assay: BiP ELISA in HEKa cell lysates
Type: cell-based
Details: 24 hours
Method: The effect of cycled peptides was determined on the production of human immunoglobulin binding protein (BiP) in human epidermal keratinocytes from adult (HEKa), through quantification of this protein in vitro in cell culture lysates by enzyme linked immunosorbent assay (ELISA).
In this study the BiP levels in human epidermal keratinocytes treated with cycled peptide B was evaluated, through quantification of this protein in vitro in cell culture lysates by enzyme linked immunosorbent assay (ELISA).
HEKa cells were seeded in a 24-well plate at a density of 50.000 cells/well and maintained at standard culture conditions (Supplemented Dermal Cell Basal Medium, DCBM; 37°C, 95% RH, 5% CO2) for 24 hours. Then, keratinocytes were treated for 24 hours with or without the presence of 0.01 or 0.05 mg/mL of cycled peptide A or peptide B. After treatment, cells were lysed with RIPA buffer and lysates were collected and centrifuged in order to eliminate cell debris and were kept at -80°C until they were used for BiP quantification with BiP ELISA Kit according to manufacturer instructions. In order to normalize data, total protein content of each sample was quantified through Micro BCA Protein Assay kit according to manufacturer instructions.
Each condition was performed at least in triplicate (n=3) in three independent experiments (N=3). For all data, mean values of the different experiments and SEM values are shown. All data was first normalized as follows: BiP levels/cell = (BiP levels per well)/(Total protein (BCA) per well) [formula] % vs Basal = (BiP per cell in treated samples)/(Bip per cell in untreated samples) × 100 [formula]
Statistical data analysis was performed using Student t-test by comparison of % BiP expression from cells untreated (Basal) vs. treated with cycled peptide samples, *p<0.05, **p<0.01, ***p<0.001.

CC(C)C[C@@H]1NC(=O)[C@H](C)NC(=O)[C@H](Cc2c[nH]cn2)NC(=O)[C@H](Cc2c[nH]c3ccccc23)NC(=O)[C@H](Cc2ccccc2)NC(=O)[C@H](CCCNC(=N)N)NC1=O [Peptide B, cyclo-Phe-Trp- His- Ala-Leu-Arg]
% Mean (BiP per cell, % vs Basal) (0.01 mg/mL): 110.18%
% Mean (BiP per cell, % vs Basal) (0.05 mg/mL): 123.74%
increase of BiP levels, increment when compared with untreated cells (Basal) (concentration dependent): up to 24%

From EP4417190A1, “CYCLIC PEPTIDES WITH ANTI-AGING EFFICACY” (Lipotrue, S.L., priority 2023, dated 2024)
